Measured values: patent US20250270513A1, “METHOD FOR PRODUCING CULTURED TISSUE, AND PREPARATION FOR EXTERNAL APPLICATION” (National University Corporation Ehime University, priority 2019, published 2025)

How the values were obtained:
[1] = tested on: AKT (Ser473 phosphorylated); assay: Western blotting of phosphorylated AKT in fibroblasts (Test Example 3-1); assay type: cell-based, human; conditions: 0, 10, 100 mg/mL trehalose in medium, 24 hours
Experimental: The cells were further DNA-stained with PI and subjected to FCM, and the proportion of each cell cycle was examined.
(3) Furthermore, proteins were extracted from the fibroblasts obtained in (1) using RIPA buffer (1% protein inhibitor (manufactured by SIGMA)+Phosphatase Inhibitor cocktail (manufactured by SIGMA)). Then, 10 μg of protein per sample was separated by SDS-PAGE by a conventional method, transferred to a PVDF membrane, and then subjected to Western blotting. Phosphorylated ERK1/2 and phosphorylated AKT were detected by ECL Prime Western Blotting Detection Reagent (manufactured by GE Healthcare), using Phospho-p44/p42 MAPK (Erk1/2) (Thr202/Tyr204) (D13.14.4E) XP Rabbit mAb (#4300, Cell Signaling) and Phospho-Akt (Ser473) antibody (#9271, manufactured by Cell Signaling Technology) as a primary antibody, and an anti-rabbit IgG antibody and an anti-mouse IgG antibody manufactured by PROMEGA were used as secondary antibodies, and visualized by Image Quant LAS4010 (manufactured by GE Healthcare).

[2] = tested on: EREG, ARG2, CCL2, IL1RN, PGF, SPP1, VEGFA, DPT and FGF2 mRNA; assay: qPCR of genes in fibroblasts in collagen gel, 3 days (Test Example 3-4); assay type: cell-based, human; conditions: 100 mg/mL trehalose (Treha 100)
Experimental: A collagen gel containing NHDF was prepared according to the method (1) of Test Example 1. The obtained collagen gel was cultured in DMEM medium containing 0 or 100 mg/mL trehalose, 1% FCS and 1% ABAM for 3 days, and RNA was recovered from the cells. The obtained sample was subjected to the same operation as in Test Example 3-2, and qPCR for genes EREG, ARG2, CCL2, IL1RN, PGF, SPP1, VEGFA, DPT and FGF2 was performed. GAPDH was used as a reference gene.

[3] = tested on: three-dimensional cultured skin (dermal tissue layer fibroblasts); assay: Staining test of tissue sections of three-dimensional cultured skin (Test Example 1); assay type: cell-based, human
Text: • (4) The obtained tissue sections of each three-dimensional cultured skin were stained with HE, EVG, HABP, K10, K5, Alcian blue, SMA and Ki67 by a conventional method. For Ki67 staining, a Ki67 antibody (manufactured by Novocastra Laboratories Ltd) and a secondary antibody (manufactured by Vector Laboratories) were used.

[4] = tested on: keratinocytes on layered dermal cell structure containing fibroblasts; assay: Large scale three-dimensional cultured tissue, confluent keratinocyte sheet, gas-liquid interface culture (Test Example 2); assay type: cell-based, human; conditions: 100 mg/mL trehalose in dermal cell structure; confluent keratinocyte sheet of about 1 cm; 75 mm insert; 5 days
Experimental: • (1) A layered dermal cell structure containing trehalose at a final concentration of 0 or 100 mg/mL was prepared according to the method (1) of Test Example above except that 10 mL of the gel solution I was added to a cell culture insert with a diameter of 75 mm, and 32 mL of the gel solution containing fibroblasts at the same cell density as in (1) was layered. • (2) A ring with a diameter of 1 cm was placed on the obtained collagen gel, and keratinocytes were seeded inside the ring and cultured in MCDB Type-II-EGM (1:1) medium for 2 days. As a result, a sheet of keratinocytes (epithelial cell layer) with a diameter of about 1 cm is formed on the collagen gel. • (3) When the keratinocytes became confluent, the ring was removed and the medium was replaced with CM medium, and gas-liquid interface culture was performed for 5 days in the same manner as in the method (3) of Test Example 1.

[5] = tested on: wound with a diameter of 6 mm on the back of C57BL/6 mice; assay: In vivo test of effect of trehalose on skin wound (Test Example 6); parameters: species or system mouse
Experimental: In order to verify an effect of trehalose on skin wounds, in vivo test using mice was performed. The method is shown below. • (1) 15 week old C57BL/6 mice were anesthetized, the back was extensively depilated, then the skin of the back was pinched and overlaid, and a wound with a diameter of 6 mm was prepared with a biopsy trepan. • (2) Wound mice were divided into 2 groups of 6 mice each, and 100 mg of an agent composed only of Vanicream (Pharmaceutical Specialties, INC) as a base was applied to a control group, and 100 mg of an agent composed of 10% by mass trehalose and Vanicream as a base was applied to a trehalose treatment group once a day. • (3) Images of each wound up to 9 days after wound formation and the area of each wound were recorded, respectively.

[6] = tested on: EREG, ARG2, CCL2, IL1RN, PGF, SPP1, VEGFA, AREG and DPT mRNA; assay: qPCR of genes in monolayer fibroblasts, 24 hours (Test Example 3-3); assay type: cell-based, human; conditions: 100 mg/mL trehalose (Treha 100)
Experimental: In the same manner as in Test Example 3-2, NHDF was cultured in 1% FCS and 1% ABAM-containing DMEM medium containing 0, 30, or 100 mg/mL trehalose or hyaluronic acid oligosaccharide 4mer (HA4) (product code 11006, manufactured by Cosmo Bio Co., Ltd.) for 24 hours, and RNA was recovered from the cells. Also, as a control, RNA was recovered from fibroblasts before treatment (0 h in FIG. 9). The obtained sample was subjected to the same operation as in Test Example 3-2, and qPCR for genes EREG, ARG2, CCL2, IL1RN, PGF, SPP1, VEGFA, AREG and DPT was performed. GAPDH was used as a reference gene.

OC[C@H]1O[C@H](O[C@H]2O[C@H](CO)[C@@H](O)[C@H](O)[C@H]2O)[C@H](O)[C@@H](O)[C@@H]1O [trehalose, α, α-trehalose]
phosphorylation of AKT [1]: promoted as the concentration of trehalose in the medium increases
mRNA expression levels of genes EREG, ARG2, CCL2, ILIRN, PGF, SPP1, VEGFA, DPT and FGF2 compared to vehicle [2]: significantly increased
Ki67 positive cells in the dermal tissue layer ([3]; 0, 10, 100 mg/mL trehalose): increased as the concentration of trehalose increased
difference in staining pattern depending on the concentration of trehalose ([3]; HE, EVG, HABP, K10, K5, Alcian blue, SMA stains (all except Ki67), 0, 10, 100 mg/mL): no difference
expansion of the epithelial tissue layer during gas-liquid interface culture [4]: expanded to the outer edge of the culture insert
recovery of wounds compared to control group ([5]; 100 mg of agent of 10% by mass trehalose and Vanicream, applied once a day): significantly faster
day on which wound epithelialized ([5]; 10% by mass trehalose in Vanicream, once a day): 4 days
wound area ([5]; 10% by mass trehalose in Vanicream, once a day, after 1 day): remarkably reduced
difference between groups in wound area (two-way ANOVA, p<0.001) ([5]; each point of days 2 to 6, n=6 in each group): significant differences
mRNA expression levels of genes EREG, ARG2, CCL2, IL1RN, PGF, SPP1, VEGFA, AREG and DPT compared to vehicle [6]: remarkably increased
